# Test results: ChEMBL document CHEMBL1201862, “PubChem BioAssay data set” (2004)
#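 Each compound was tested at five concentrations against cells in 96-well plates for 48 hours. GI50 marks 50% less growth.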 Activity calls are given as the source filed them. Cut-off read from the data, not from the text of the source: active = GI50 up to about 1.1 µM and inactive = higher. Residues, ends and D or L forms follow the SMILES beside them. *: point of attachment. Pentanoyl = CCCCC(=O)*; Boc = CC(C)(C)OC(=O)*
# Assays:
# Test in all cases: NCI-60 cell line screen, 48 h
# OVCAR-8 = test system: OVCAR-8
# SNB-75 = test system: SNB-75
# RPMI-8226 = test system: RPMI-8226
# MDA-MB-231 = test system: MDA-MB-231
# MDA-MB-435 = test system: MDA-MB-435
# HCC 2998 = test system: HCC 2998
# MOLT-4 = test system: MOLT-4
# U-251 = test system: U-251
# A549 = test system: A549
# SK-MEL-5 = test system: SK-MEL-5
# NCI-H460 = test system: NCI-H460
# UACC-257 = test system: UACC-257
# HL-60 = test system: HL-60
# HCT-15 = test system: HCT-15
# CAKI-1 = test system: CAKI-1
# NCI-H23 = test system: NCI-H23
# SK-OV-3 = test system: SK-OV-3
# UACC-62 = test system: UACC-62
# 786-0 = test system: 786-0
# NCI-H226 = test system: NCI-H226
SMILES,GI50 (OVCAR-8),GI50 (SNB-75),GI50 (RPMI-8226),GI50 (MDA-MB-231),GI50 (MDA-MB-435),GI50 (HCC 2998),GI50 (MOLT-4),GI50 (U-251),GI50 (A549),GI50 (SK-MEL-5),GI50 (NCI-H460),GI50 (UACC-257),GI50 (HL-60),GI50 (HCT-15) [µM],GI50 (CAKI-1),GI50 (NCI-H23),GI50 (SK-OV-3),GI50 (UACC-62),GI50 (786-0),GI50 (NCI-H226)
CCCCC(=O)Oc1ccc(CC(NC(=O)OC(C)(C)C)C(=O)NC(C)C(=O)NC(Cc2ccccc2)C(=O)NCC(N)=O)cc1 (stereo not given) (Boc-Y(Pentanoyl)AFG-NH2; configuration not given here),16.8 µM (inactive),45.5 µM (inactive),21.2 µM (inactive),20 µM (inactive),20 µM (inactive),20.6 µM (inactive),24.3 µM (inactive),20.5 µM (inactive),> 100 µM (inactive),70 µM (inactive),31.7 µM (inactive),27.7 µM (inactive),26.4 µM (inactive),> 100,> 100 µM (inactive),41 µM (inactive),32.6 µM (inactive),20.5 µM (inactive),43.6 µM (inactive),> 100 µM (inactive)
Cc1cccc(/C=N/NC(=S)NC(C)(C)C)n1,50.8 µM (inactive),> 100 µM (inactive),32.9 µM (inactive),34.6 µM (inactive),> 100 µM (inactive),56.1 µM (inactive),4.72 µM (inactive),93.3 µM (inactive),> 100 µM (inactive),56.1 µM (inactive),85.1 µM (inactive),> 100 µM (inactive),85.5 µM (inactive),24.8,> 100 µM (inactive),> 100 µM (inactive),> 100 µM (inactive),66.4 µM (inactive),76.9 µM (inactive),52.4 µM (inactive)
NS(=O)(=O)c1ccc(NC(=O)N/N=C/c2ccccc2[N+](=O)[O-])cc1,37.7 µM (inactive),> 100 µM (inactive),30.3 µM (inactive),44.8 µM (inactive),19 µM (inactive),33.9 µM (inactive),39.8 µM (inactive),43.1 µM (inactive),> 100 µM (inactive),65.5 µM (inactive),> 100 µM (inactive),79.4 µM (inactive),46.1 µM (inactive),35,44.8 µM (inactive),41.6 µM (inactive),45.5 µM (inactive),75.3 µM (inactive),45.6 µM (inactive),42.9 µM (inactive)
COc1ccc(C2SC(C)C(=O)N2c2nc(-c3nc(-c4ccc(Cl)cc4)cs3)cs2)cc1 (stereo not given),> 100 µM (inactive),> 100 µM (inactive),> 100 µM (inactive),> 100 µM (inactive),> 100 µM (inactive),> 100 µM (inactive),49.2 µM (inactive),84.7 µM (inactive),> 100 µM (inactive),> 100 µM (inactive),> 100 µM (inactive),> 100 µM (inactive),94.4 µM (inactive),> 100,> 100 µM (inactive),> 100 µM (inactive),> 100 µM (inactive),> 100 µM (inactive),> 100 µM (inactive),> 100 µM (inactive)
[N-]=[N+]=C1CNC(=O)NC1=O,> 100 µM (inactive),13.5 µM (inactive),28.8 µM (inactive),> 100 µM (inactive),95.7 µM (inactive),> 100 µM (inactive),42.5 µM (inactive),> 100 µM (inactive),> 100 µM (inactive),> 100 µM (inactive),> 100 µM (inactive),> 100 µM (inactive),34 µM (inactive),> 100,> 100 µM (inactive),> 100 µM (inactive),> 100 µM (inactive),> 100 µM (inactive),60.4 µM (inactive),> 100 µM (inactive)
OCC(O)C(O)C(O)C1SC(c2ccccc2)=NN1c1ccccc1 (stereo not given),54 µM (inactive),16 µM (inactive),> 86.3 µM (inactive),> 55 µM (inactive),97.9 µM (inactive),> 100 µM (inactive),> 81.3 µM (inactive),51.4 µM (inactive),78.3 µM (inactive),> 78.5 µM (inactive),> 78 µM (inactive),> 89.1 µM (inactive),> 88.7 µM (inactive),> 100,> 100 µM (inactive),45.7 µM (inactive),36.9 µM (inactive),47 µM (inactive),37 µM (inactive),> 76 µM (inactive)
Clc1nc2c(-c3cccs3)ncnc2n1Cc1ccccc1,49.9 µM (inactive),21.3 µM (inactive),3.58 µM (inactive),32.2 µM (inactive),49.2 µM (inactive),3.21 µM (inactive),37.5 µM (inactive),38.5 µM (inactive),32.4 µM (inactive),24.9 µM (inactive),37.9 µM (inactive),21.2 µM (inactive),24.5 µM (inactive),32.1,3.08 µM (inactive),46.1 µM (inactive),38.9 µM (inactive),72.3 µM (inactive),19.5 µM (inactive),15.8 µM (inactive)
